This note sets out measurements from patent publication US20070066616A1, “Inhibitors for extracellular signal-regulated kinase docking domains and uses therefor” (priority 2005, published 2007).

Entries after “also recorded” stand apart in the source; their conditions may differ.

The subject of experiment [1] is ERK-mediated phosphorylation of Rsk-1 on Thr573. Kind of experiment: ERK-mediated Rsk-1 phosphorylation (Thr573), immunoblot and densitometry in EGF-stimulated HeLa cells. The conditions noted are these: immunoblot. The experiment is classed as cell-based, human. How it is done: Prior to harvesting, cells were pre-incubated with the test compounds for 15-20 minutes and then stimulated with EGF or anisomycin to activate the ERK or p38 MAP kinase pathways, respectively. Control and treated cells were washed twice with cold phosphate buffered saline (PBS, pH 7.2; Invitrogen) and proteins were collected following cell lysis with 300 μl of cold tissue lysis buffer (20 mM Tris, pH 7.4, 137 mM NaCl, 2 mM EDTA, 1% Triton X-100, 0.1% SDS, 25 mM β-glycerophosphate, 2 mM sodium pyrophosphate, 10% glycerol, 1 mM sodium orthovanadate, 1 mM phenylmethylsulfonyl fluoride (PMSF), 1 mM benzamidine), allowed to incubate on ice for about 10 minutes and then centrifuged at 20,000 (X g) to clarify the lysates of insoluble material. The lysates then were diluted with an equal volume of 2X SDS-sample buffer and the proteins were separated on SDS-PAGE for immunoblot analysis. Immunoblot analysis was done as previously described (41-43).
All compounds were subjected to assays of ERK specific phosphorylation of Rsk-1 and/or Elk-1 as examined by immunoblot analysis using phosphorylation specific antibodies. In FIG. 5A HeLa cells were cultured in 24 well plates and pretreated for 20-30 minutes with […] of the selected test compounds. The cells were stimulated with epidermal growth factor (EGF, 50 ng/ml) for 5 minutes to activate the ERK pathway. Cell lysates were collected and immunoblotted for ERK-mediated phosphorylation of Rsk-1 on Thr573. As shown, EGF treatment alone caused a robust increase in Thr573 phosphorylation on Rsk-1 in the absence of test compounds. The presence of test compounds had inhibitory effects on ERK-mediated Rsk-1 phosphorylation.
Compounds 86-98 were first tested for inhibition of ERK mediated phosphorylation of the transcription factor Elk-1, which is an important regulator of cell proliferation. Cells were treated with EGF to activate the ERK pathway and phosphorylation of Elk-1 on the ERK site at S383 was detected by immunoblot analysis (FIG. 5C). […] The effects of the test compounds were also tested with Rsk-1, another ERK substrate involved in regulating cell proliferation.
(In general: A western blot detects proteins with antibodies after separation by electrophoresis.)

The test system of experiment [2] is HeLa, A549, or SUM-159 cells. Description: Colony formation assay, screen of test compounds (FIG. 7A). The format is cell-based, human. Also on record: dose or concentration left out as unconfirmed. To be noted: FIG. 7A screen as printed. How it is done: HeLa, A549, or SUM-159 cells were plated at a low density of ˜200-400 cells per well in the absence or presence of putative ERK docking domain inhibitors. Cell colonies were stained with crystal violet and counted after 6-10 days. In FIG. 7A cells were grown on 10 cm plates in the absence (−) or presence of 100 mM of compound 67, 36, 68, 81, or 76. Colony formation dose response in the presence of the indicated concentrations of compound 76 or 81 for Hela cells […] (FIG. 7B), A549 cells (50 mM) (FIG. 7C), or SUM-159 cells (50 mM) (FIG. 7D).
(§1) Trypsinized cells were plated on 12 or 24 well plates at low densities (200-400 cells per well) in the absence (DMSO only) or presence of test compounds. In additional experiments, cells were first allowed to adhere to the culture dishes for 16 hours prior to treatment with test compounds. The treated cells received a single dose of the test compounds at the beginning of the experiments. The control and treated cells were grown for 8-14 days to allow the formation of colonies. Cells then were fixed for 10 minutes in 4% paraformaldehyde and stained with 0.2% crystal violet (in 20% methanol) for 1-2 minutes. Following several washes with distilled water, the colonies (containing at least 40 cells) were counted. Each individual experiment was repeated on at least 3 separate occasions.
The effects of the active compounds on cell proliferation and survival were tested using a colony formation assay.

For experiment [3], the system named is ERK specific phosphorylation of Rsk-1 and/or Elk-1. Description: ERK substrate phosphorylation assays (Rsk-1 and/or Elk-1). The format is cell-based, human. How it is done:
(§2) Prior to harvesting, cells were pre-incubated with the test compounds for 15-20 minutes and then stimulated with EGF or anisomycin to activate the ERK or p38 MAP kinase pathways, respectively. […] The lysates then were diluted with an equal volume of 2X SDS-sample buffer and the proteins were separated on SDS-PAGE for immunoblot analysis. Immunoblot analysis was done as previously described (41-43).

In a further experiment the target is T1, ERK2 (Mus musculus, UniProt P63085).
T1 construct: (His)x6; made in house; host or cells: bacteria
T1 sequence (P63085 whole entry): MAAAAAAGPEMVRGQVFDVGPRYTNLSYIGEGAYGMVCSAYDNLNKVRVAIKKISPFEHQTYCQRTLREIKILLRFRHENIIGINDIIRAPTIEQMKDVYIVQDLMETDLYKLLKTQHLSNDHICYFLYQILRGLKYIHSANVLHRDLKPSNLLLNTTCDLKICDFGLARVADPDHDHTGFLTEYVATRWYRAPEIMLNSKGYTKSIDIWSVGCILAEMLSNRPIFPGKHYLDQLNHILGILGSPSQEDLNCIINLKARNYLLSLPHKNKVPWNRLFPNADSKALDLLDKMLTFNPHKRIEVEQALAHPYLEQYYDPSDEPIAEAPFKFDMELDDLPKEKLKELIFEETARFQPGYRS
Description: Fluorescence titration (quenching of intrinsic ERK2 fluorescence). The format is binding. The conditions noted are these: fluorescence titration. Here is the method:
Experiments measure the changes in the intrinsic ERK2 fluorescence due to the presence of aromatic amino acids, with the indole group of tryptophan being the major fluorophore with absorption and emission maxima around 280 and 340 nanometers (nm), respectively. Fluorescence spectra were recorded with a Luminescence Spectrometer LS50 (Perkin Elmer, Boston, Mass.). For all experiments, ERK2 protein was diluted into 20 mM Tris-HCl, pH 7.5. Titrations were performed by increasing the test compound concentration while maintaining the ERK2 protein concentration at 3 μM.
The excitation wavelength was 295 nm and fluorescence was monitored from 300 to 500 nm. All reported fluorescence intensities are relative values and are not corrected for wavelength variations in detector response. Dissociation constants, KD, were determined using reciprocal plots, 1/ν vs 1/[I], where ν represents the percent occupied sites calculated assuming fluorescence quenching to be directly proportion to the percentage of occupied binding sites, [I] represents the concentration of the inhibitor compound and the slope of the curve equals the KD (48-49).
ERK2 contains three tryptophans, which have intrinsic fluorescence. Fluorescence quenching of ERK2 by the test compounds is indicative of binding interactions and potential protein conformational changes.

The test system of experiment [4] is A549 lung carcinoma cells. Kind of experiment: Colony formation assay, A549 cells. The format is cell-based, human. The conditions noted are these: colony formation dose response (FIG. 7C). How it is done:
(§3) HeLa, A549, or SUM-159 cells were plated at a low density of ˜200-400 cells per well in the absence or presence of putative ERK docking domain inhibitors. Cell colonies were stained with crystal violet and counted after 6-10 days. In FIG. 7A cells were grown on 10 cm plates in the absence (−) or presence of 100 mM of compound 67, 36, 68, 81, or 76. Colony formation dose response in the presence of the indicated concentrations of compound 76 or 81 for Hela cells (100 mM) (FIG. 7B), A549 cells (50 mM) (FIG. 7C), or SUM-159 cells (50 mM) (FIG. 7D).
as §1

For experiment [5], the system named is SUM-159 estrogen-receptor negative breast cancer cell line. Kind of experiment: Cell proliferation, SUM-159 cells. The format is cell-based, human. Here is the method: as §3, §1
The subject of experiment [6] is HT1080 fibrosarcoma cells. Kind of experiment: Cell proliferation, HT1080 cells. The format is cell-based, human. The conditions noted are these: data not shown. Here is the method: as §1
The test system of a further experiment is HeLa cells. Kind of experiment: Colony formation assay, HeLa cells. The format is cell-based, human. The conditions noted are these: for IC50: HeLa cells, single dose 0-100 μM, 8-10 days, at least 3 experiments. Here is the method: HeLa, A549, or SUM-159 cells were plated at a low density of ˜200-400 cells per well in the absence or presence of putative ERK docking domain inhibitors. Cell colonies were stained with crystal violet and counted after 6-10 days.
as §1
HeLa cells were plated at low density and incubated with a single dose (0-100 μM) of the test compounds being tested. After 8-10 days, the resulting cell colonies were stained, photographed, and counted to estimate the IC50. The data is derived from at least 3 independent experiments.

Experiment [7] has as its system ERK-mediated phosphorylation of Elk-1 on S383. Kind of experiment: ERK-mediated Elk-1 phosphorylation (Ser383), immunoblot in EGF-stimulated HeLa cells. The experiment is classed as cell-based, human. How it is done:
as §2
Cells were treated with EGF to activate the ERK pathway and phosphorylation of Elk-1 on the ERK site at S383 was detected by immunoblot analysis (FIG. 5C). […] The effects of the test compounds were also tested with Rsk-1, another ERK substrate involved in regulating cell proliferation.

Consider `N=C(N)Nc1nc(C2COc3ccccc3O2)cs1` (stereo not drawn) [Compound 36], for which the “effect on ERK-mediated Rsk-1 phosphorylation (in words)” value in [1] is given as “little effect”. In experiment [2], the “effect on colony formation / cell proliferation (in words)” value was “subtle inhibition; also recorded: little effect”. In experiment [3], the “activity in ERK substrate phosphorylation assays (in words)” value is on record as “little effect”.

With `COc1ccc(CN2CCNCC2)cc1` [Compound 67], the “effect on ERK-mediated Rsk-1 phosphorylation (in words)” value in [1] was “significantly reduced”. Also, the “ERK2 fluorescence quenching / binding (in words)” value on ERK2 is “did not show quenching”. The “effect on colony formation / cell proliferation (in words)” value in experiment [2] is reported as “little effect”.

Turning to `CN(C)CCNC(=O)c1ccc(-c2ccccc2)cc1` [Compound 68], the “effect on ERK-mediated Rsk-1 phosphorylation (in words)” value in experiment [1] is given as “appeared to enhance; also recorded: enhanced”. The “effect on colony formation / cell proliferation (in words)” value in experiment [2] was “little effect”.

The IC50 is the concentration at which inhibition is half-maximal. For the compound `O=C(CCN1CCN(C/C=C/c2ccccc2)CC1)Nc1ccc(Cl)cc1` [Compound 81], the “ERK2 fluorescence quenching / binding (in words)” value on ERK2 is given as “quenching only occurs to a small extent at the higher concentrations”. In addition, in experiment [2], the “effect on colony formation / cell proliferation (in words)” value is “completely inhibited”. This compound came in with an IC50 in experiment [4] of around 15 µM. Also, in experiment [5], the “inhibition of cell proliferation in SUM-159 (in words)” value is “inhibition of cell proliferation”. Besides, in experiment [6], the “inhibition of cell proliferation in HT1080 (in words)” value is on record as “inhibition of cell proliferation”.

As for `C#CCOC(=O)CCCC(=O)Nc1ccc([N+](=O)[O-])cc1Cl` [Compound 87], the IC50 with HeLa cells was above 100 µM.

For `CCOC(=O)c1ccc(C=NO)[n+]([O-])c1` [Compound 88], the IC50 in the experiment with HeLa cells is above 100 µM.

In the case of `NC(=N[N+](=O)[O-])N/N=C/c1ccc(-c2cccc([N+](=O)[O-])c2)o1` [Compound 89], the “effect on ERK-mediated Rsk-1 phosphorylation (in words)” value in [1] is on record as “most effective”. Moreover, in experiment [7], the “effect on ERK-mediated Elk-1 phosphorylation (in words)” value is “most effective”.

As to `CCOC(=O)c1ccc(NC(=S)NCCN2CCOCC2)cc1` [Compound 90], the IC50 with HeLa cells is above 100 µM.

On to `CC(Oc1ccc(C=C2NC(=S)NC2=O)cc1)C(=O)O` (stereo not drawn) [Compound 91], for which the “effect on ERK-mediated Rsk-1 phosphorylation (in words)” value in experiment [1] is given as “most effective”. Further, the IC50 in the experiment on HeLa cells is above 100 µM.

`Cc1ccc(-c2nc(-c3cccc([N+](=O)[O-])c3)no2)c(Cl)c1` [Compound 93]: the “effect on ERK-mediated Elk-1 phosphorylation (in words)” value in [7] is listed as “most effective”. Moreover, the “ERK2 fluorescence quenching / binding (in words)” value on ERK2 is given as “some quenching”. The same compound showed an IC50 in the experiment with HeLa cells of 5 to 10 µM. The “inhibition of colony formation / cancer cell proliferation (in words)” value in the experiment on HeLa cells (compounds 86-98, colony formation assay (FIG. 7E)) is “most effective inhibitors”.

In the case of `COc1cc(C=C2NC(=O)NC2=O)ccc1OCc1ccc(Br)cc1` [Compound 95], the “effect on ERK-mediated Rsk-1 phosphorylation (in words)” value in [1] is given as “most effective”. Also, in [7], the “effect on ERK-mediated Elk-1 phosphorylation (in words)” value is reported as “most effective”. Further, in the experiment on HeLa cells, the IC50 lay within 10 to 25 µM.

In the case of `COc1ccc(C(=O)Nc2ccc(OCC(=O)O)cc2)cc1` [Compound 96], in the experiment with HeLa cells, the IC50 is above 100 µM.

Turning to `O=C(CN1CCSCC1)NN=Cc1ccc(Br)s1` [Compound 97], the IC50 with HeLa cells is above 100 µM.

For `NC(=O)COc1ccc(C=C2C(=O)NC(=S)NC2=O)cc1` [Compound 98], the IC50 with HeLa cells is above 100 µM.
